Legend:
[1] = tested on: gl1 plants; assay: Treatments with norflurazon and chloramphenicol; assay type: in vivo, Arabidopsis thaliana
Method: The reagent chloramphenicol (Sigma; CP) was diluted from 100 mg/ml stock solutions prepared in ethanol to 150 μg/ml, and equivalent volume of ethanol was included in the chloramphenicol-free-treated controls. For norflurazon (Sigma; Nf) treatment, Nf was diluted from 100 mM stock solutions prepared in DMSO to 3 μM, and equivalent volume of DMSO was included in the Nf-free-treated controls. The 3-week-old seedlings were treated with CP or Nf by irrigation of either 150 μg/ml CP or 3 μM Nf dissolved both in distilled water. Stomatal response to exogenous (±)-ABA was assayed at different time intervals after the application of the reagents, and the amounts of ABAR/CHLH protein were immuno-determined at the same time.
ABA contents in tissues were assayed by radioimmunoassay method as described previously (Zhang, D. P. et al., Plant physiol. 128:714-725 (2002)).

[2] = tested on: inducible RNAi transgenic plants (ABAR/CHLH expression); assay: Induction of RNAi by 17beta-estradiol in inducible RNAi lines; assay type: in vivo, Arabidopsis thaliana; details: 10 μM 17beta-estradiol
Excerpt: These constructs were introduced in Agrobacterium tumefaciens GV3101 strain and transformed into plants by floral infiltration. The homozygous T3 seeds of the transgenic plants were used for analysis. […] The seeds of the gun4-1, gun5-1 and cch mutants were a generous gift from Dr. J. Chory (The Salk Institute, La Jolla, Calif.). The seeds of the mutants hy1-1 (ABRC#: CS67), hy2-1 (CS68) and chl-2 (CS3362) were obtained from the Arabidopsis Biological Resource Center (ABRC). Except for the mutants hy1-1 and hy2-1 with the ecotype Ler as background, all the other mutants were isolated from the ecotype Columbia. Plants were grown in a growth chamber at 20-21° C. on Murashige-Skoog (MS) medium at about 80 μmol photons m^−2 s^−1, or in compost soil at about 120 μmol photons m^−2 s^−1 over a 16-h photoperiod.
For the treatment of seedlings of the inducible RNAi lines with 17beta-estradiol (Sigma) to induce down-regulation of ABAR/CHLH expression, 17beta-estradiol was diluted from 10 mM stock solution prepared in dimethyl sulfoxide (DMSO) to 10 μM, and equivalent volume of DMSO was included in the 17beta-estradiol-free-treated controls. […] The amounts of ABAR/CHLH protein were also determined at the same time by immunoblotting. […] The expression of ABAR/CHLH and some ABA-responsive genes was assessed by real-time PCR.

[3] = target: T1, natural ABAR/CHLH protein (Arabidopsis thaliana, UniProt Q9FNB0); assay: Pull-down assay with anti-ABAR serum; assay type: binding; details: 30 nM [3H](+)ABA
T1 construct: 50 μg proteins of the crude extracts from two-week-old Arabidopsis seedlings; from tissue; host or cells: crude extracts of two-week-old Arabidopsis seedlings / leaves of gl1 (WT), RNAi line 12 and overexpressor line 1
T1 sequence (Q9FNB0 50-1381): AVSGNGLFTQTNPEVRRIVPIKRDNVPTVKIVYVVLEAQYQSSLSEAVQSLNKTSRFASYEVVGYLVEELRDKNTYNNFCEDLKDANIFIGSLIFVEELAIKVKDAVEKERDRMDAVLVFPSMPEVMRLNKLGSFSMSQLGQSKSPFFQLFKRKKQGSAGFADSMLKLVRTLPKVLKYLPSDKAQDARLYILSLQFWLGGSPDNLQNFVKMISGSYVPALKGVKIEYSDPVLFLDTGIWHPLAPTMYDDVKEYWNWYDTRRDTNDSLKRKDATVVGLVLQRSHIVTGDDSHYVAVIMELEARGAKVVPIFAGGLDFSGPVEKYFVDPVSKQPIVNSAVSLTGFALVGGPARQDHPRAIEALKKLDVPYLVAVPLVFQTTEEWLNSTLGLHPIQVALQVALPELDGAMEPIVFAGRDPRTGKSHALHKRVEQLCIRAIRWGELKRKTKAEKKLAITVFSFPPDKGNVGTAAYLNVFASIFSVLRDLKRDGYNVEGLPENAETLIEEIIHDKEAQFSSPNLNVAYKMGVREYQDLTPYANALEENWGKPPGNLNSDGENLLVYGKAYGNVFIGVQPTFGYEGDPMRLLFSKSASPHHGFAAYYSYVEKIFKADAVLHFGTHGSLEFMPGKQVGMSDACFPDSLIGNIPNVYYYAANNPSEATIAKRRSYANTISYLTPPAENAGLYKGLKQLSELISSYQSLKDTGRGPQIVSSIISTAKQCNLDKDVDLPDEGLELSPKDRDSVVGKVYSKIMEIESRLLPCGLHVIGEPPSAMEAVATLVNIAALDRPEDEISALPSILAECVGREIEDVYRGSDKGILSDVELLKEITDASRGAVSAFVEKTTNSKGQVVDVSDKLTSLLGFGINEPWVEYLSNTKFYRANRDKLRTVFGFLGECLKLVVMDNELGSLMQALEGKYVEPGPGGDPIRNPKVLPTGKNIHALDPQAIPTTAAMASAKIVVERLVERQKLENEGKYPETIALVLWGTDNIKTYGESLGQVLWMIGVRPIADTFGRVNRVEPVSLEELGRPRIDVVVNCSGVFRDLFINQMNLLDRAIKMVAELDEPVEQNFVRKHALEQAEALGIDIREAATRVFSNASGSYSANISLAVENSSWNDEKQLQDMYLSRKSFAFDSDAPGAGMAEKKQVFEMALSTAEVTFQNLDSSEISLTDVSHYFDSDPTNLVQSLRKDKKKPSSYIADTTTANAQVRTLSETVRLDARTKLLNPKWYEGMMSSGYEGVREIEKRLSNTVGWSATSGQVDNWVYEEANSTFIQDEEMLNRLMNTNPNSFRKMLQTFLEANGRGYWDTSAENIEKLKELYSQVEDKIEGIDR
Method: The pull down assay was done as follows to detect ABA binding to the natural ABAR/CHLH protein. Total proteins were extracted from two-week-old Arabidopsis seedlings with the medium C composed of the medium B supplemented with 250 mM mannitol. The crude extracts (3 mg total proteins) was incubated by gently shaking in the medium C (400 μl) containing 30 nM [^3H](+)ABA at 4° C. for 2 h, and the anti-ABAR^N serum (10 μg, described below) was added into the medium for a further incubation at 4° C. for 2 h, and then the medium was supplemented by 100 μl 25% (v/v) protein A-agarose (Santa Cruz) for a final incubation at 4° C. for 2 h. Following the incubation, protein A-agarose was recovered by a brief centrifugation and washed with 1 ml medium C. The pellets were resuspended in […] water and mixed with scintillation fluid before the radioactivity (d.p.m., disintegrations per minute) of the bound [^3H](+)ABA was measured.
Three independent control experiments were performed for the pull down assays. A control was done by addition of the same amounts of mouse preimmune serum instead of the antiserum to the medium of the above-described pull down assay in the extracts from the leaves of wild-type plants. […]

[4] = target: T2, Arabidopsis ABAR/CHLH (H subunit of Mg-chelatase) (Arabidopsis thaliana, UniProt Q9FNB0); assay: ABA binding assay with purified yeast-expressed ABAR/CHLH; details: purified ABAR, 30 nM [3H]ABA, 1 to 1000-fold molar excess of competitor
T2 construct: 6xHis; made in house; host or cells: Pichia methanolica (Pichia Methanolica Expression kit, Invitrogen)
T2 sequence (Q9FNB0 50-1381): T1 sequence (Q9FNB0 50-1381)
Method: Full-length ABAR/CHLH coding sequence was PCR-amplified with forward primer 5′-[…]-3′ (SEQ ID NO:30) and reverse primer 5′-[…]-3′ (SEQ ID NO:31). The recombinant ABAR/CHLH was expressed in yeast as a fusion protein with a 6×His (SEQ ID NO:32) tag by using Pichia Methanolica Expression kit (Invitrogen) and the fusion protein was affinity-purified according to manufacturer's instructions.
The ABA-binding activity of ABAR was assayed according to the previously described procedures (Zhang, D. P. et al., Plant physiol. 128:714-725 (2002)) with modifications. The binding medium (medium A) contained 50 mM Tris-HCl (pH 7.0), 2 mM MgCl2, 1 mM CaCl2, and 250 mM mannitol. The medium for extracting the Arabidopsis natural ABAR/CHLH protein (medium B) was the medium A supplemented with 2 mM 1,4-dithiothreitol (DTT), 1 mM phenylmethyl sulfonyl fluoride (PMSF), […] leupeptin, and […] pepstin A but minus 250 mM mannitol. [^3H](+)ABA (American Radiolabeled Chemicals, 2.37×10^12 Bq mmol^−1, purity 98.4%) at 30 nM, or at a step gradient of concentrations from 0 to 70 nM (when analyzing ABA binding kinetics, see FIG. 1a, d1), together with 2 μg purified yeast-expressed ABAR/CHLH protein or 50 μg proteins of the crude extracts from two-week-old Arabidopsis seedlings, was added into the medium A. The total volume for the binding assays was adjusted to 200 μl. The mixtures were incubated at 25° C. for 30 min, and then quickly placed on ice. Following the addition of 100 μl 0.5% (w/v) Dextran T70-coated charcoal (DCC) to remove the free [^3H]ABA by adsorption, the mixtures were maintained on ice for 5 min, and then centrifuged to remove DCC before the radioactivity in the supernatant was counted. The specific binding was determined by the difference between the radioactivity bound to the immuno-purified ABAR protein or crude extracts of Arabidopsis seedlings incubated only with [^3H]ABA (total binding) and radioactivity bound in the presence of 1,000-fold molar excess of unlabeled (+)-ABA (Sigma; non-specific binding. Non-specific binding in all the assays was lower than 10% of the total binding, see FIG. 1a, d1). The unlabeled ABA was added into the incubation medium at the same time with [^3H]ABA. The ABA-binding activity of the crude ABA-binding protein from Arabidopsis seedling was expressed as the number of nanomoles of [^3H]ABA specifically bound per gram of protein, and that of the immuno-purified ABAR protein as the number of moles of [^3H]ABA per mole of protein. The stereo-specificity of the ABA-binding was assayed as described previously (Zhang, D. P. et al., Plant physiol. 128:714-725 (2002)). […] The conditions of incubation were the same as described above (the incubation medium containing 30 nM [^3H]ABA), and the two ABA isomers and (+)-ABA were assayed in the concentrations ranging from 1 to 1000-fold molar excess of [^3H]ABA.

CNc1cnn(-c2cccc(C(F)(F)F)c2)c(=O)c1Cl [norflurazon] was tested, and the ABA contents ([1]; Nf-treated plants, 3 μM by irrigation) was “remained unchanged”.

With C[C@]12CC[C@@H]3c4ccc(O)cc4CC[C@H]3[C@@H]1CC[C@@H]2O [17beta-estradiol] the “ABAR transcript and product / ABAR levels” value [2] was “significant decline” and the “ABAR transcript and product / ABAR levels” value ([2]; listed as 17beta-oestradiol) was “decrease”.

With (+)-ABA the “displacement of [3H]ABA / stereospecificity of pulled-down ABA-binding activity” value [3] was “highly stereospecific” and the “displacement of [3H](+)-ABA binding” value [4] was “efficient displacement”.

In the case of CC1=CC(=O)CC(C)(C)C1(O)/C=C/C(C)=C\C(=O)O (single isomer, unassigned; (-)) [(−)-ABA], the “displacement of [3H](+)-ABA binding” value [4] is reported as “not”.

In the case of O=C(N[C@H](CO)[C@H](O)c1ccc([N+](=O)[O-])cc1)C(Cl)Cl [chloramphenicol], the ABA contents ([1]; CP-treated plants, 150 μg/ml by irrigation) is reported as “remained unchanged”, the ABAR levels ([1]; after CP treatment (FIG. 9)) is reported as “decrease” and the “stomatal movement response to ABA” value ([1]; after CP treatment (FIG. 9), 10 μM (±)-ABA) is reported as “ABA-insensitive”.

CC(C=CC1(O)C(C)=CC(=O)CC1(C)C)=CC(=O)O (stereo not drawn) [trans-ABA] was tested, and the “displacement of [3H](+)-ABA binding” value [4] was “not”.

From US20090044291A1, “DROUGHT-RESISTANT PLANTS AND METHOD FOR PRODUCING THE PLANTS” (D-Helix, priority 2006, published 2009)
